In the kinase profiling compilation of Christmann-Franck et al. (2016):

Assays:
Experiment in all cases: radiometric filter-binding kinase assay, Kinaseprofiler
ALK (human) = ALK (human) (UniProt Q9UM73); conditions: ATP 200 µM
PTK2B (human) = PTK2B (human) (UniProt Q14289); conditions: ATP 90 µM
IKBKB (human) = IKBKB (human) (UniProt O14920); conditions: ATP 10 µM
MAP3K9 (human) = MAP3K9 (human) (UniProt P80192); conditions: ATP 45 µM
STK4 (human) = STK4 (human) (UniProt Q13043); conditions: ATP 90 µM
ABL1 (human) = ABL1 (human) (UniProt P00519); conditions: ATP 10 µM
STK17A (human) = STK17A (human) (UniProt Q9UEE5); conditions: ATP 10 µM
NEK3 (human) = NEK3 (human) (UniProt P51956); conditions: ATP 120 µM
GSG2 (human) = GSG2 (human) (UniProt Q8TF76); conditions: ATP 70 µM
KIT (human) = KIT (human) (UniProt P10721); conditions: ATP 200 µM
MAP2K1 (human) = MAP2K1 (human) (UniProt Q02750); conditions: ATP 10 µM
NEK7 (human) = NEK7 (human) (UniProt Q8TDX7); conditions: ATP 45 µM
AURKB (human) = AURKB (human) (UniProt Q96GD4); conditions: ATP 10 µM
PLK1 (human) = PLK1 (human) (UniProt P53350); conditions: ATP 70 µM
SRPK2 (human) = SRPK2 (human) (UniProt P78362); conditions: ATP 10 µM
TXK (human) = TXK (human) (UniProt P42681); conditions: ATP 200 µM
BRSK1 (human) = BRSK1 (human) (UniProt Q8TDC3); conditions: ATP 200 µM
CDK6 CCND3 (human) = CDK6 CCND3 (human) (UniProt P30281+Q00534); conditions: ATP 200 µM
WNK2 (human) = WNK2 (human) (UniProt Q9Y3S1); conditions: ATP 200 µM
CDK3 CCNE1 (human) = CDK3 CCNE1 (human) (UniProt Q00526+P24864); conditions: ATP 200 µM
PAK3 (human) = PAK3 (human) (UniProt O75914); conditions: ATP 120 µM
PRKD2 (human) = PRKD2 (human) (UniProt Q9BZL6); conditions: ATP 155 µM
ITK (human) = ITK (human) (UniProt Q08881); conditions: ATP 200 µM
HIPK1 (human) = HIPK1 (human) (UniProt Q86Z02); conditions: ATP 45 µM
MAPK14 (human) = MAPK14 (human) (UniProt Q16539); conditions: ATP 90 µM
INSRR (human) = INSRR (human) (UniProt P14616); conditions: ATP 200 µM
SIK1 (human) = SIK1 (human) (UniProt P57059); conditions: ATP 45 µM
GRK6 (human) = GRK6 (human) (UniProt P43250); conditions: ATP 45 µM
MKNK2 (human) = MKNK2 (human) (UniProt Q9HBH9); conditions: ATP 120 µM
STK3 (human) = STK3 (human) (UniProt Q13188); conditions: ATP 155 µM
SRPK1 (human) = SRPK1 (human) (UniProt Q96SB4); conditions: ATP 10 µM
MAP3K7 (human) = MAP3K7 (human) (UniProt O43318); conditions: ATP 45 µM
EPHA4 (human) = EPHA4 (human) (UniProt P54764); conditions: ATP 15 µM

Sequence of NEK3 (human) (P51956 whole entry, looked up): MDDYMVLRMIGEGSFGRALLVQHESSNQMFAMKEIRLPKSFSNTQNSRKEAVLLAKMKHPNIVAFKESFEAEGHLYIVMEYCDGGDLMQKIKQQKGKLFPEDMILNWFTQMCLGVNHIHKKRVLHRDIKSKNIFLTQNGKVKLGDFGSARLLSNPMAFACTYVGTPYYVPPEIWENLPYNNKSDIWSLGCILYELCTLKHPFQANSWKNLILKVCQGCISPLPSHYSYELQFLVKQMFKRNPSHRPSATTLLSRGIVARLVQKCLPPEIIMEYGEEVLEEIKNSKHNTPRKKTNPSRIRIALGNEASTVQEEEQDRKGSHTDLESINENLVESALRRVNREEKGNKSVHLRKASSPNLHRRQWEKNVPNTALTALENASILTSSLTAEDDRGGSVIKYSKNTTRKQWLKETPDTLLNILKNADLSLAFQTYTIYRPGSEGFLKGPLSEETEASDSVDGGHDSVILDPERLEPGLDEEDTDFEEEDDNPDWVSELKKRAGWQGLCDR
Sequence of PTK2B (human) (Q14289 whole entry, looked up): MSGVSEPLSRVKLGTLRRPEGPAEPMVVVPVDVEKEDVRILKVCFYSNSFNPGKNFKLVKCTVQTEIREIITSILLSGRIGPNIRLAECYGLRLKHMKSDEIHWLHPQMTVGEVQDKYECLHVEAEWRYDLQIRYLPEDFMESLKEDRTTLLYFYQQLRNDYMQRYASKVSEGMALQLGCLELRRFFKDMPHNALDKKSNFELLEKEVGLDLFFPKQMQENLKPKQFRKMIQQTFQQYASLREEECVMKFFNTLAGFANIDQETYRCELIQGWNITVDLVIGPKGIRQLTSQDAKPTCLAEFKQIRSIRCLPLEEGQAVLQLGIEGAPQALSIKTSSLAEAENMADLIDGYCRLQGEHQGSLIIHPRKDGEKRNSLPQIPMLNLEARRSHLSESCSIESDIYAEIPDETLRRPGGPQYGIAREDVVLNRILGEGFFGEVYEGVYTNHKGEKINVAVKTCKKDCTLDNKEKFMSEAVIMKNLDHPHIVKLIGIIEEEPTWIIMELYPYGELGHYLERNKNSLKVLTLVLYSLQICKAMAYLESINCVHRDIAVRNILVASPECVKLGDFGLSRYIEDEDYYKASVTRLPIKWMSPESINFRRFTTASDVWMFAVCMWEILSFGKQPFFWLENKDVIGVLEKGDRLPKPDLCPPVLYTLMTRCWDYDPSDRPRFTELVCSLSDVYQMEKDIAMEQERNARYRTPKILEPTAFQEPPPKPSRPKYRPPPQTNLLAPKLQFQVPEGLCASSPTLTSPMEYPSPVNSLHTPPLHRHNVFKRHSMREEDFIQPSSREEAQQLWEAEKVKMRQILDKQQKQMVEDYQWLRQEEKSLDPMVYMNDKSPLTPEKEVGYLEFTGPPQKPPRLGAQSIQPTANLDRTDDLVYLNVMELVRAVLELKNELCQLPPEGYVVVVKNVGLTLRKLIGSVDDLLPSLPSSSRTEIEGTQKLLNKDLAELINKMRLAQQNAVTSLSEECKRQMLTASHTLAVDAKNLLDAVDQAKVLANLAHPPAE
Sequence of PAK3 (human) (O75914 whole entry, looked up): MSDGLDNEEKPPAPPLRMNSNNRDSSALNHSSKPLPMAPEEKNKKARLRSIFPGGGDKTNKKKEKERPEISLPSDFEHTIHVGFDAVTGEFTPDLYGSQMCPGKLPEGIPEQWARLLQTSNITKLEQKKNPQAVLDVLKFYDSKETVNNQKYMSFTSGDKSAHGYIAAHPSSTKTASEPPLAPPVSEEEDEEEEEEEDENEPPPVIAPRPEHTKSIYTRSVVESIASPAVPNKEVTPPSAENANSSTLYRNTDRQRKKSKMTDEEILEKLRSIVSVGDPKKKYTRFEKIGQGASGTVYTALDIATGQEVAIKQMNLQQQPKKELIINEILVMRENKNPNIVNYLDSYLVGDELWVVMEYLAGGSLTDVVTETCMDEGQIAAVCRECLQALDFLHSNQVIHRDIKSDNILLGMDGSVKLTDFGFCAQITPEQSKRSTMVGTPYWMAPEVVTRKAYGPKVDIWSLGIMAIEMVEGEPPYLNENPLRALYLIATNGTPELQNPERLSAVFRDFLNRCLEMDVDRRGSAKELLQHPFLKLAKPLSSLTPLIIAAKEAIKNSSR
Sequence of SIK1 (human) (P57059 whole entry, looked up): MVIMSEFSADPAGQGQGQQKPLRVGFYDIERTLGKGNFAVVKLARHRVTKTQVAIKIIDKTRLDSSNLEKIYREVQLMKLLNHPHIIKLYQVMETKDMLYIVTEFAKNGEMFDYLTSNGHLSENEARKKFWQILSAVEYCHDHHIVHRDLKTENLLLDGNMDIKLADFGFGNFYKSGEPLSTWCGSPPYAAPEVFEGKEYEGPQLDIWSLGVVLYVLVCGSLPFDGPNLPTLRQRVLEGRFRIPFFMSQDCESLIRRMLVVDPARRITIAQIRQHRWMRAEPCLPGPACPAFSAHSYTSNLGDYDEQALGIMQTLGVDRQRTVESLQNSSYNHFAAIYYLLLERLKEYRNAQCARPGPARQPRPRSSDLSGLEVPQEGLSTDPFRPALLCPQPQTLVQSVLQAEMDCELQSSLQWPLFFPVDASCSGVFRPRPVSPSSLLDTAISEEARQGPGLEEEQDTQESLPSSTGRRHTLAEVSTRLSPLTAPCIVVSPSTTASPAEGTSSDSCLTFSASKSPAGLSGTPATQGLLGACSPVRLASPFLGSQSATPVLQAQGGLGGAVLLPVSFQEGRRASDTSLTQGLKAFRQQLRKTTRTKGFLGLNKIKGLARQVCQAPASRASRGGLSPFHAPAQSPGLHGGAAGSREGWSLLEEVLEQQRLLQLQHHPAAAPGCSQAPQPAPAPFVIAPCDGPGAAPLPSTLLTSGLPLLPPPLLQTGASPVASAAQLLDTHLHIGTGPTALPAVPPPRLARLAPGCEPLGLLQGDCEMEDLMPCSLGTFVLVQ
Sequence of GSG2 (human) (Q8TF76 whole entry, looked up): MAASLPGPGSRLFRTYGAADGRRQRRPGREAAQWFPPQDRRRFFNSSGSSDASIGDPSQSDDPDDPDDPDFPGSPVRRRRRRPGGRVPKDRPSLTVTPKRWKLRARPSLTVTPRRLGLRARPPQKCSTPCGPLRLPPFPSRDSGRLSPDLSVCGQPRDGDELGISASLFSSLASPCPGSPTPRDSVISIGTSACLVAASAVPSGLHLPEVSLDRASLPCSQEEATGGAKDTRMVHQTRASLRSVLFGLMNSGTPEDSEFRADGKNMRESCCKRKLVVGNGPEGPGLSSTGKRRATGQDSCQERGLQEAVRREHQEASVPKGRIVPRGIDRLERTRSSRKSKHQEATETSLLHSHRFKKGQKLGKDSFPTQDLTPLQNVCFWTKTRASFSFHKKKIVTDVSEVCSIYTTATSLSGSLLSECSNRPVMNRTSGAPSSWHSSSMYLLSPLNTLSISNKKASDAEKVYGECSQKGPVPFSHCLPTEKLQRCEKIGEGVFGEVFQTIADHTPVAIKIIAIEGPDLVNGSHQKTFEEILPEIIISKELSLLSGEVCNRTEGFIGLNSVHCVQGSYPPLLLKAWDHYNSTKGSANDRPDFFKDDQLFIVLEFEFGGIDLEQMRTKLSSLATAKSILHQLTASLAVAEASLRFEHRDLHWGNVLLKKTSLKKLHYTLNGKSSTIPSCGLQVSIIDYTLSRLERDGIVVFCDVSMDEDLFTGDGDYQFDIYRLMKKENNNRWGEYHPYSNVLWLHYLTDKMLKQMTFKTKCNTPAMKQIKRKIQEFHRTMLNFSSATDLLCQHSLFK
Sequence of SRPK2 (human) (P78362 whole entry, looked up): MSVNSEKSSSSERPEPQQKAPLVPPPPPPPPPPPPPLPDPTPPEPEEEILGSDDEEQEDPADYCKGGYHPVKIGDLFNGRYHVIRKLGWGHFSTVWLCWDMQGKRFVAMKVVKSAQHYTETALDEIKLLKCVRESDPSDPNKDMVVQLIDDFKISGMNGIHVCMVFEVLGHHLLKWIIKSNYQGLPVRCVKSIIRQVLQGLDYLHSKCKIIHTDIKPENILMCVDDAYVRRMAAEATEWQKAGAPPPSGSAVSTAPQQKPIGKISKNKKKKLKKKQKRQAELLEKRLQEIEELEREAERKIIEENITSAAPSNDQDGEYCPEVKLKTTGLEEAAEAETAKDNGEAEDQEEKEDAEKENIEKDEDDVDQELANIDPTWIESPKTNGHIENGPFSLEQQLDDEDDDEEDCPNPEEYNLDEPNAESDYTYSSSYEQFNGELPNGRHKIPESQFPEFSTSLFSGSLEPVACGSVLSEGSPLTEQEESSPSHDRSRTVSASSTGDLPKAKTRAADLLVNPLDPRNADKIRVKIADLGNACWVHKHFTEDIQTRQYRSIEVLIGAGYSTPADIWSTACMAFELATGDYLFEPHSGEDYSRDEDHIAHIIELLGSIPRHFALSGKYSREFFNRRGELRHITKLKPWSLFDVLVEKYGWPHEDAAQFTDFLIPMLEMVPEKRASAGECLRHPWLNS
Sequence of ITK (human) (Q08881 whole entry, looked up): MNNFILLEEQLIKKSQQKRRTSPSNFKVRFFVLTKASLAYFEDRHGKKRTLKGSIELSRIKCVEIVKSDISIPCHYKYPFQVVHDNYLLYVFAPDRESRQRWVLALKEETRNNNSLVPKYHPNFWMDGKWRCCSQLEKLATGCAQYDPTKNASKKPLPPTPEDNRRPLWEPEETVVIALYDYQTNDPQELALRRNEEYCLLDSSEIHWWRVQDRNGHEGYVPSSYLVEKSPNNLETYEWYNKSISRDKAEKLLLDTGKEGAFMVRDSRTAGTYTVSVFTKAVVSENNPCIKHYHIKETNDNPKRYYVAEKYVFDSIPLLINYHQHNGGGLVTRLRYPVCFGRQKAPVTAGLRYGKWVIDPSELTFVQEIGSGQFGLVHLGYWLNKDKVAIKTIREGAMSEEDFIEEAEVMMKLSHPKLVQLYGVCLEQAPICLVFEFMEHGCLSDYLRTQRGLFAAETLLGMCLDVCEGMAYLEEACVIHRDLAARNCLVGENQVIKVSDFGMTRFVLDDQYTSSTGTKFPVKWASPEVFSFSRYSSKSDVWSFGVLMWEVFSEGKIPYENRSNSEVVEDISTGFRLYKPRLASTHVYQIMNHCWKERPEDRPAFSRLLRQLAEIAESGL

O=C1Nc2ccccc2/C1=C1\Nc2ccccc2\C1=N/O
residual activity (ALK (human); compound 1.0 µM): 52% | residual activity (ALK (human); compound 10.0 µM): 18% | residual activity (PTK2B (human); compound 1.0 µM): 14% | residual activity (PTK2B (human); compound 10.0 µM): 2% | residual activity (IKBKB (human); compound 1.0 µM): 87% | residual activity (IKBKB (human); compound 10.0 µM): 67% | residual activity (MAP3K9 (human); compound 1.0 µM): 6% | residual activity (MAP3K9 (human); compound 10.0 µM): 1% | residual activity (STK4 (human); compound 1.0 µM): 8% | residual activity (STK4 (human); compound 10.0 µM): 2% | residual activity (ABL1 (human); compound 1.0 µM): 49% | residual activity (ABL1 (human); compound 10.0 µM): 16% | residual activity (STK17A (human); compound 1.0 µM): 6% | residual activity (STK17A (human); compound 10.0 µM): 4% | residual activity (NEK3 (human); compound 1.0 µM): 86% | residual activity (NEK3 (human); compound 10.0 µM): 94% | residual activity (GSG2 (human); compound 1.0 µM): 26% | residual activity (GSG2 (human); compound 10.0 µM): 19% | residual activity (KIT (human); compound 1.0 µM): 20% | residual activity (KIT (human); compound 10.0 µM): 2% | residual activity (MAP2K1 (human); compound 1.0 µM): 64% | residual activity (MAP2K1 (human); compound 10.0 µM): 55% | residual activity (NEK7 (human); compound 1.0 µM): 106% | residual activity (NEK7 (human); compound 10.0 µM): 102% | residual activity (AURKB (human); compound 1.0 µM): 1% | residual activity (AURKB (human); compound 10.0 µM): -2% | residual activity (PLK1 (human); compound 1.0 µM): 83% | residual activity (PLK1 (human); compound 10.0 µM): 103% | residual activity (SRPK2 (human); compound 1.0 µM): 96% | residual activity (SRPK2 (human); compound 10.0 µM): 67% | residual activity (TXK (human); compound 1.0 µM): 45% | residual activity (TXK (human); compound 10.0 µM): 11% | residual activity (BRSK1 (human); compound 1.0 µM): 13% | residual activity (BRSK1 (human); compound 10.0 µM): 12% | residual activity (CDK6 CCND3 (human); compound 1.0 µM): 16% | residual activity (CDK6 CCND3 (human); compound 10.0 µM): 5% | residual activity (WNK2 (human); compound 1.0 µM): 90% | residual activity (WNK2 (human); compound 10.0 µM): 55% | residual activity (CDK3 CCNE1 (human); compound 1.0 µM): 5% | residual activity (CDK3 CCNE1 (human); compound 10.0 µM): 0% | residual activity (PAK3 (human); compound 1.0 µM): 88% | residual activity (PAK3 (human); compound 10.0 µM): 57% | residual activity (PRKD2 (human); compound 1.0 µM): 109% | residual activity (PRKD2 (human); compound 10.0 µM): 98% | residual activity (ITK (human); compound 1.0 µM): 19% | residual activity (ITK (human); compound 10.0 µM): 1% | residual activity (HIPK1 (human); compound 1.0 µM): 90% | residual activity (HIPK1 (human); compound 10.0 µM): 73% | residual activity (MAPK14 (human); compound 1.0 µM): 94% | residual activity (MAPK14 (human); compound 10.0 µM): 78% | residual activity (INSRR (human); compound 1.0 µM): 2% | residual activity (INSRR (human); compound 10.0 µM): 1% | residual activity (SIK1 (human); compound 1.0 µM): 43% | residual activity (SIK1 (human); compound 10.0 µM): 8% | residual activity (GRK6 (human); compound 1.0 µM): 81% | residual activity (GRK6 (human); compound 10.0 µM): 80% | residual activity (MKNK2 (human); compound 1.0 µM): 62% | residual activity (MKNK2 (human); compound 10.0 µM): 18% | residual activity (STK3 (human); compound 1.0 µM): 6% | residual activity (STK3 (human); compound 10.0 µM): 0% | residual activity (SRPK1 (human); compound 1.0 µM): 90% | residual activity (SRPK1 (human); compound 10.0 µM): 66% | residual activity (MAP3K7 (human); compound 1.0 µM): 64% | residual activity (MAP3K7 (human); compound 10.0 µM): 71% | residual activity (EPHA4 (human); compound 1.0 µM): 96% | residual activity (EPHA4 (human); compound 10.0 µM): 83%
